Test results from US8680157B2, “Androgen receptor-dependent gene expression control” (Universitaetsklinikum Freiburg, priority 2005, dated 2014).

Assays:
[1] = test system: LSD1-induced activation of AR; test: Transient transfection, AR-dependent luciferase reporter with co-expressed LSD1 and AR in 293 cells; assay type: cell-based; conditions: R1881, 3×10^−3 M pargyline, 1×10^−3 M deprenyl or 1×10^−4 M chlorgyline, 18 hours, FIG. 4e
Description: 293 and CV-1 cells were cultured and transfected as described^13. LNCaP cells were cultured in phenol-red-free RPMI1640 supplemented with 10% double-stripped fetal calf serum (dsFCS) and transfected with Effectene (Qiagen). The following amounts per well were used: MMTV-LUC, ARE2x-TATA-LUC, ARE2x-TK-LUC, TK-LUC, PSA-LUC, Slp-ARU-TATA-LUC 500 ng each, 25 ng expression plasmids for AR; 500 ng expression plasmids for LSD1 1-174, LSD1 175-246, LSD1 247-852, pSUPER-control, and pSUPER-LSD1; 100 to 500 ng expression plasmids for LSD1 were transfected per well. […] Luciferase activity was assayed as described^14. All experiments were repeated at least five times in duplicate.

LSD1 = biological target: T1, LSD1 (Homo sapiens, UniProt O60341); test: Chromatin immunoprecipitation (ChIP) at the PSA promoter in LNCaP cells; assay type: cell-based
T1 construct: endogenous in cells; host or cells: LNCaP
Description: ChIP experiments were performed essentially as described^15. […] LNCaP cells were transfected three days before harvesting for ChIP with or without siRNA (Qiagen) following the manufacture's instructions. Immunoprecipitation was performed with specific antibodies (α-monoMeK9H3, α-diMeK9H3, α-triMeK9H3, α-monoMeK4H3, α-diMeK4H3, α-triMeK4H3, α-H3 (abcam), α-LSD1, and α-AR PG21 (Upstate Biotechnology) on GammaBind™-Sepharose 4B (GE-Healthcare). For PCR, 1-5 μl out of 50 μl DNA extract was used. For Re-ChIP assays, immunoprecipitations were sequentially washed with TSE I, TSE II, buffer III, and TE^15. Complexes were eluted by incubation with 10 mM DTT at 37° C. for 30 min, diluted 50 times with dilution buffer^15 followed by a second immunoprecipitation with the indicated antibody. Primer sequences were as follows: middle; PSA (−2223/−1951) 5′-[…]-3′ and 5′-[…]-3′; PCR primers for ARE I+II (PSA (−459/−121)) and ARE III (PSA (−4288/−3922)) have been described previously^16.

[2] = pargyline, R1881, FIG. 3d and data not shown

Structure (SMILES)	LSD1-induced ligand-dependent activation of AR (reporter activity) [1]	demethylation of mono- and dimethyl H3-K9 during androgen-induced transcription (LSD1; PSA promoter, pargyline 18 hours, 10^−8 M R1881 210 min, FIG. 3d)	methylation levels of trimethyl H3-K9 (LSD1; PSA promoter, pargyline 18 hours, R1881, FIG. 3d)	methylation status of H3-K27 (LSD1; [2])	methylation status of H4-K20 (LSD1; [2])
C#CCN(C)[C@H](C)Cc1ccccc1 [deprenyl, (R)-(−)-N,2-dimethyl-N-2-propynylphenethylamine]	severely impair				
C#CCN(C)Cc1ccccc1 [pargyline, N-methyl-N-2-propynyl-benzylamine]	severely impair	blocks	remains unchanged	remains unchanged	remains unchanged
C#CCN(C)CCCOc1ccc(Cl)cc1Cl [clorgyline, N-methyl-N-propargyl-3-(2,4-dichlorophenoxy-)propylamine]	severely impair				
